Laboratory results published in article PMC10453993 (Emerging Microbes & Infections, 2023).
Read-outs that look alike come from different tables or passages of the source.

System: SARS-CoV-2 VOCs
Experiment: microbe, parasite or virus in culture
Type: cell-based
[1] = Severe acute respiratory syndrome coronavirus 2, read-out: EC50, dsRNA staining
[2] = Severe acute respiratory syndrome coronavirus 2, read-out: EC50, nucleocapsid staining

**Q.** What does the source list for CN(C)c1ccc(N(Cc2cc(Cl)cs2)C(=O)Cc2cncc3ccccc23)cc1 [C5, N-((4-chlorothiophen-2-yl)methyl)-N-(4-(dimethylamino)phenyl)-2-(isoquinolin-4-yl)acetamide]?
**A.** EC50 [1]: 200 to 700 nM; EC50 [2]: 100 to 300 nM

**Q.** Which results are given for CN(C)c1ccc(N(Cc2cc(Cl)cs2)C(=O)Cc2cncc3cccc(O)c23)cc1 [C5a, N-((4-chlorothiophen-2-yl)methyl)-N-(4-(dimethylamino)phenyl)-2-(5-hydroxyisoquinolin-4-yl)acetamide]?
**A.** EC50 [1]: 28 to 95 nM; EC50 [2]: 30 to 69 nM

**Q.** For CC(C)(C)[C@H](NC(=O)C(F)(F)F)C(=O)N1C[C@H]2[C@@H]([C@H]1C(=O)N[C@H](C#N)C[C@@H]1CCNC1=O)C2(C)C [C7, Nirmatrelvir, reference compound], which EC50 (Severe acute respiratory syndrome coronavirus 2, Calu-3) is on record?
**A.** Its EC50 is 1300 nM.

**Q.** And the EC50 [1]?
**A.** The EC50 was 400 to 700 nM.

**Q.** What about the EC50 [2] of the same compound?
**A.** The EC50 was 300 to 400 nM.
